In patent US6358936B2, “Compounds for the treatment of cancer” (Ardenia Investments, Ltd., priority 1998, dated 2002):
Several values for one entry are separate records, joined by “and”; a condition that tells them apart may be missing. Equal entries are not always repeated. Entries after “also recorded” stand apart in the source; their conditions may differ. Where two headings read alike, the source gives them in different places.

Legend:
[1] = tested on: Ehrlich ascites carcinoma (EAC); experiment: Anti-tumour effect of DXR complexes on Ehrlich ascites carcinoma growth in ICR mice (i.v. days 2, 4, 6; tumour cells counted day 8); type: in vivo; conditions: DXR 3.5 mg/kg; C4 22.5 mg/kg or C5 12 mg/kg
Experimental: Random-bred albino mice of line ICR, male and female, from own rearing were used in the study. The room for animal housing was provided with filtered air at 15 changes per hour, a temperature of 19-21° C., relative humidity of 50-60% and regulated light day of 12 hours with change of light and darkness at 6 a.m. and 6 p.m. The mice were kept in transparent polycarbonate cages with a floor area of 600 cm^2 containing softwood sawdust bedding. […] The mice aged 2-2.5 months and having a weight of 19-22 g were randomly distributed in the control and test groups, standardised by mean weights. The control and test groups included 10 and 7 animals correspondingly. The mice of each group were identified by specific ear marks. The cages with animals of each group were identified by cage cards marked with the study date, group number, number and sex of the animals.
The strain of EAC was propagated in ICR mice by intraperitoneal inoculation of 0.2 ml native ascites fluid or 0.5 ml ascites fluid diluted by saline to 1:1 from one or two animals with intraperitoneally growing EAC on day 7. Ascites fluids contained more 98% of viable tumour cells according to trypan blue exclusion test. For the each study the suspension of EAC cells in sterile saline in concentration of 10^7 viable tumour cells/ml was prepared in aseptic conditions from ascites fluid of mouse bearing of EAC on day 7.
The mice of each control and experimental groups were inoculated by intraperitoneal injection of 2×10^6 EAC cells in volume of 0.2 ml at day 0. Intravenous injections for the study were carried out in lateral tail vein of mice once every other day, three times (day 2, 4 and 6) following inoculation of EAC cells. The mice of control group were injected by vehicle in volume of 2.5 ml/kg of body weight (50 μl to mouse of 20 g body weight) intravenously (negative control).
The mice were killed by cervical dislocation two days later after the final treatment with the test complexes on day 8. Ascites fluids were removed, collected, their volumes were recorded, and abdominal cavities were washed by saline 6-7 times and both fluids were pooled. After centrifugation at 1000 r.p.m. for 10 min volumes of tumour cell pellet were also recorded. Number of viable tumour cells was counted by hemocetometer. Means and standard errors for each groups were calculated. Comparison of tumour cell number in control and test groups was carried out using Student's t-test. The influence of tested preparations on EAC growth inhibition was evaluated by the following formula: [formula]

[2] = tested on: EAC; conditions: for EAC growth inhibition / number of tumour cells: days 2, 4, 6, day 9
[3] = tested on: EAC cells; experiment: Antitumor effect of compound 1 and doxorubicin on EAC in C3H mice (Example 20); type: in vivo; conditions: for Ascites volume / Tumor cell quantity / EAC growth inhibition, % to control: days 2, 4, 6, day 9
Experimental: 20-22 g males of C3H mice were used. Control and experimental groups included 7 animals, which were inoculated 5×10^6 EAC cells i.p. in volume 0.2 ml at day 0. […] One group of mice was untreated control. Results of experiment were accounted on ninth day. Mice were killed by cervical dislocation. Ascitic fluids were removed, collected, their volumes were measured, and abdominal cavities were washed by saline solution 6-7 times. Thus obtained fluids were pooled. The number of viable tumor cells was counted by hemocytometer, using trypan blue exclusion test. The mean and the standard mean error was calculated for each group of mice. Comparison of tumor cell number in control and experimental groups was carried out using Student t-test. Influence of tested preparation on EAC growth inhibition was evaluated by: [formula]

[4] = tested on: EAC; experiment: Effect of compound 1 with AFP on growth of EAC in C3H mice (Example 21); type: in vivo; conditions: compound 1 1 mg/kg (20 μg/mouse) i.v. ×3, AFP none
Experimental: The influence of compound with different amount of AFP on the growth of EAC was studied. The experiments were carried out on inbred C3H mice having initial weight of 20-23 g. The used tumor cell strain was supported by i.p. passages to mice of the same line. At the beginning of the research (day 0) four groups, each of which contained 7 mice, were formed. All of the animals were inoculated by tumour cells in saline solution i.p. (5·10^6 cells in 0,2 ml per a mouse).
The first group of animals was untreated (negative control). The mice were injected by NMS. […] The animals of third and fourth groups were injected the same dose of compound 1, the protein being added to NMS (2,5 and 5 μg/mouse, accordingly). On the ninth day after inoculation by EAC cells the mice were killed and ascitic fluids were collected and estimated quantitatively. Tumor cells suspensions were prepared and aliquotes were mixed with equal volume of 0,1% trypan blue solution. The quantity of tumor cells were counted with hemocytometer.
Results of the experiments were evaluated by means of variation statistics method using Student t-test. The values of inhibiting effects of the preparations were represented as percentage in comparison with control.

[5] = doxorubicin dose 1 mg/kg i.v. in NMS
[6] = doxorubicin dose 2.5 mg/kg i.v. in NMS
[7] = dose 20 μg/mouse i.v. (doxorubicin equivalent, 1 mg/kg)
[8] = dose 20 μg/mouse i.v. (doxorubicin equivalent, 1 mg/kg), 1 mg/kg
[9] = dose 50 μg/mouse i.v. (doxorubicin equivalent, 2.5 mg/kg)
[10] = dose 100 μg/mouse i.v. (doxorubicin equivalent, 5 mg/kg)
[11] = doses corresponding to 1 and 2.5 mg/kg of doxorubicin

SMILES | influence of the compound on the anti-tumour action of DXR in the DXR/compound complex [1] | EAC growth inhibition [2, 5] | number of tumour cells [2, 5] | number of tumour cells [2, 6] | Ascites volume [3, 7] | Tumor cell quantity [3, 7] | EAC growth inhibition, % to control [3, 8] | Ascites volume [3, 9] | Tumor cell quantity [3, 9] | Ascites volume [3, 10] | Tumor cell quantity [3, 10] | further results
CCCCC/C=C\C/C=C\C/C=C\C/C=C\CCCC(=O)NCCOP(=O)(O)O [C5, N-arachidonoyl-o-phospho-2-aminoethanol] | canceled the anti-tumour action of DXR; also recorded: cancelled the anti-tumour action of DXR |  |  |  |  |  |  |  |  |  |  | 
CC/C=C\C/C=C\C/C=C\C/C=C\C/C=C\C/C=C\CCC(=O)N[C@H](C(=O)O)[C@@H](C)OP(=O)(O)O [C11, N-docosahexaenoyl-o-phospho-L-threonine] | canceled the anti-tumour action of DXR |  |  |  |  |  |  |  |  |  |  | 
COc1cccc2c1C(=O)c1c(O)c3c(c(O)c1C2=O)C[C@@](O)(C(=O)CO)C[C@@H]3O[C@H]1C[C@H](N)[C@H](O)[C@H](C)O1 [DXR, doxorubicin, reference compound] |  | 34.8% | 635.9±122.78 ×10^6 | 537.4±92.89 ×10^6 | 2.85 ± 1.35 mL | 765.8 ± 127.52 × 10^6 | 36.9% | 1.85 ± 1.10 mL | 662.1 ± 99.17 × 10^6 | 0.80 ± 0.60 mL | 350.0 ± 108.21 × 10^6 | EAC growth inhibition, % to control [3, 10]: 71.2%
CC1=C(/C=C/C(C)=C/C=C/C(C)=C/C(=O)N[C@@H](Cc2ccc(OP(=O)(O)O)cc2)C(=O)O)C(C)(C)CCC1 (stereo in doubt) [C4, N-(all-trans-retinoyl)-o-phospho-L-tyrosine] | cancelled the anti-tumour action of DXR |  |  |  |  |  |  |  |  |  |  | 
COc1cccc2c1C(=O)c1c(O)c3c(c(O)c1C2=O)C[C@@](O)(C(=O)CO)C[C@@H]3O[C@H]1C[C@H](NC(=O)\C=C(C)/C=C/C=C(C)/C=C/C2=C(C)CCCC2(C)C)[C@H](O)[C@H](C)O1 (relative stereo) [Compound 2, N-(13-cis-retinoyl)-doxorubicin] |  | 45.3% | 533.5±94.23 ×10^6 | 405.7±120.62 ×10^6 |  |  |  |  |  |  |  | antitumor effect in respect to EAC [2, 11]: exceeding the effect of doxorubicin alone; EAC growth inhibition [2, 6]: 58.4%
COc1cccc2c1C(=O)c1c(O)c3c(c(O)c1C2=O)CC(O)(C(=O)CO)CC3OC1CC(NC(=O)/C=C(C)/C=C/C=C(C)/C=C/C2=C(C)CCCC2(C)C)C(O)C(C)O1 (stereo not drawn) [Compound 1, N-(all-trans-retinoyl)-doxorubicin] |  |  |  |  | 3.50 ± 1.30 mL | 640.0 ± 78.04 × 10^6 | 47.3% | 2.10 ± 1.70 mL | 535.0 ± 167.90 × 10^6 | 3.30 ± 1.20 mL | 571.4 ± 66.96 × 10^6 | Ascites volume [4]: 2.0 ± 0.25 mL; Tumor cell quantity [4]: 1185.7 ± 266.2 × 10^6; EAC growth inhibition, % to control ([4]; 1 mg/kg): 45.0%; EAC growth inhibition, % to control ([4]; listed as compound 1, 1 mg/kg): 45%; EAC growth inhibition, % to control ([3]; dose 20 μg/mouse i.v. (doxorubicin equivalent, 1 mg/kg), listed as compound 1, 1 mg/kg): 47%; EAC growth inhibition, % to control ([3]; dose 50 μg/mouse i.v. (doxorubicin equivalent, 2.5 mg/kg), 2.5 mg/kg): 55.9%; EAC growth inhibition, % to control ([3]; dose 50 μg/mouse i.v. (doxorubicin equivalent, 2.5 mg/kg), listed as compound 1, 2.5 mg/kg): 57% and 56%; EAC growth inhibition, % to control ([3]; dose 100 μg/mouse i.v. (doxorubicin equivalent, 5 mg/kg), 5 mg/kg): 52.9%; EAC growth inhibition, % to control ([3]; dose 100 μg/mouse i.v. (doxorubicin equivalent, 5 mg/kg), listed as compound 1, 5 mg/kg): 53%; anti-tumour effect towards EAC [3, 11]: exerts high anti-tumour effect towards EAC
